# Entries after “also recorded” stand apart in the source; their conditions may differ.
# How the values were obtained:
# Cdc42 = Cdc42 activity (Cdc42-GTP levels) in mouse brain endothelial cells; format: cell-based; details: for Cdc42 activity: CLN3−/− MBEC, p<0.05
# Description: FIGS. 2A and 2B. Carbenoxolone reduces Cdc42 activity in CLN3-null JNCL mouse brain endothelial cells (MBEC). […] FIG. 3: CBX corrects Cdc42-GTP levels. […] Data represent the mean of three independent experiments, error bars±SEM (1-way ANOVA with TUKEY post-hoc, (*, p<0.05, n.s.=not significant).
# [1] = tested on: CLN3-null JNCL mouse brain endothelial cells; assay: Scratch wound cell migration, live cell microscopy; format: cell-based; details: CLN3−/− MBEC, CBX vs mock, overnight
# Procedure: FIG. 4. Carbenoxolone normalizes migration of CLN3-null JNCL mouse brain endothelial cells. Cell migration induced by a scratch in cell monolayers was measured using live cell microscopy and quantified by T-Scratch software. CLN3-expressing (CLN3-R) and CLN3-null (CLN3-/-) MBEC were grown to confluence. A gap in the monolayer was made by “[…] wound”, and the rate of cell migration to fill in the gap was monitored by live cell microscopy. CLN3-/- MBEC show a delayed ability to fill in the gap. Carbenoxolone treatment corrects this defect. Cells were either treated with CBX or left untreated (mock) in the presence or absence of CBX. Data are collected overnight. Data represent the mean of three independent experiments, error bars±SEM (2-way ANOVA with Bonferroni post-hoc correction, *, p<0.05).
# Cln3−/− MBECs = assay: Fluid-phase endocytosis, uptake of fluorescent dextran; format: cell-based, mouse; details: 25 μM CBX for 30 minutes
# Procedure: FIG. 5. Correction of fluid-phase endocytosis by CBX. Hoechst 33342 to label DNA (blue) and saline (mock) or 25 μM CBX was added to cell culture media for 30 minutes. Fluid-phase endocytic uptake in the presence of CBX or PBS was determined by uptake of fluorescent dextran (green). Extracellular dextran was quenched by Red-40 and cells were imaged by epifluorescence. ImageJ was used to calculate fluorescence intensity. Data represent the mean of three independent experiments, error bars±SEM (1-way ANOVA with TUKEY post-hoc, ***, p<0.0001). Scale bar=10 μm.
# caveolin-1 = assay: Caveolin-1 transport to the cell membrane, immunofluorescence; format: cell-based, mouse; details: CLN3−/− MBEC, 25 μM for 2 h
# Procedure: FIG. 6. Carbenoxolone restores caveolin-1 transport to the cell membrane in CLN3-null JNCL mouse brain endothelial cells. CLN3-expressing (CLN3-R) and CLN3-null (CLN3−/−) MBEC were untreated or cultured with 25 μM carbenoxolone for 2 h, then immunofluorescently stained for caveolin-1. Without treatment, caveolin-1 transport to the plasma membrane is impaired in CLN3−/− MBEC. Carbenoxolone restores normal caveolin-1 trafficking to the plasma membrane.
# [2] = tested on: plasma membrane cholesterol; assay: Cholesterol distribution at the plasma membrane, Amplex Red Cholesterol assay; format: cell-based, mouse; details: CBX 25 μM for 2 hours vs mock
# Procedure: Plasma membranes are detergent-free fractionated and cholesterol levels in each fraction are quantified by the Amplex Red® Cholesterol assay kit. A representative experiment from four independent experiments is shown with CBX 25 μM for 2 hours or mock treatment.
# Cln3−/− mice = assay: Autofluorescent inclusions in cingulate cortex brain sections; format: in vivo, mouse; details: gavage 20 mg/kg daily for two weeks, p<0.05
# Description: FIG. 11: CBX treatment reduces Cln3^−/− autofluorescent inclusions. Thin (50 μm) brain sections from mice treated as in were imaged under low magnification in the red channel to detect autofluorescence. Four images were taken of each cingulate cortex, and fluorescence intensity averaged in ImageJ. Data represent a minimum of 4 mice per group. Error bars±SEM (1-way ANOVA with TUKEY post-hoc, *, p<0.05) Scale bar=200 μm.
# [3] = Leshchenko et al., 2006; cited from earlier work
smiles,measurement,setting,value
"CC1(C)[C@@H](OC(=O)CCC(=O)O)CC[C@]2(C)[C@H]3C(=O)C=C4[C@@H]5C[C@@](C)(C(=O)O)CC[C@]5(C)CC[C@@]4(C)[C@]3(C)CC[C@@H]12 [CBX, carbenoxolone]",Cdc42 activity level,"Cdc42; CLN3-R (CLN3-expressing) MBEC, CBX 50 μM for 2 h",does not alter
same,Cdc42 activity,Cdc42; CBX 50 μM for 2 h,effectively normalized
same,Cdc42 activity,"Cdc42; CBX 50 μM for 2 h, listed as Carbenoxolone",significantly reduces
same,Cdc42-GTP levels,"Cdc42; Cln3−/− MBECs, CBX 25 μM for 2 hours vs saline (mock)",corrects; also recorded: reduces
same,Cell migration (rate of filling scratch gap),[1],increases cell migration
same,Cell migration (rate of filling scratch gap),[1]; listed as Carbenoxolone,normalizes
same,Fluid-phase endocytosis (fluorescent dextran uptake),Cln3−/− MBECs,Correction; also recorded: increases fluid-phase endocytosis
same,Caveolin-1 transport to the plasma membrane,caveolin-1,restores
same,Cholesterol distribution at the plasma membrane,[2],corrects cholesterol distribution
same,"Autofluorescent inclusions (fluorescence intensity, cingulate cortex)",Cln3−/− mice,reduces
same,Ability to pass the blood-brain barrier (BBB),[3],little or no ability
